# Test results taken from ChEMBL document CHEMBL1129037 (J Med Chem, 1996).
# pIC50: −log10 of the molar value.
# Columns and labels:
# [1] = biological target: T1, Sodium-dependent dopamine transporter (Rattus norvegicus, UniProt P23977); assay: Inhibition of [3H]WIN-35428 binding to dopamine transporter using rat striatal tissue; type: tissue-based, Striatum
# [2] = biological target: T1, Sodium-dependent dopamine transporter; assay: Inhibitory activity against [3H]dopamine uptake in rat striatal tissue; type: functional, tissue-based, Striatum
# [3] = biological target: Sodium-dependent dopamine transporter (Rattus norvegicus) (UniProt P23977)
# Sodium-dependent dopamine transporter (Rattus norvegicus), sequence (P23977 whole entry): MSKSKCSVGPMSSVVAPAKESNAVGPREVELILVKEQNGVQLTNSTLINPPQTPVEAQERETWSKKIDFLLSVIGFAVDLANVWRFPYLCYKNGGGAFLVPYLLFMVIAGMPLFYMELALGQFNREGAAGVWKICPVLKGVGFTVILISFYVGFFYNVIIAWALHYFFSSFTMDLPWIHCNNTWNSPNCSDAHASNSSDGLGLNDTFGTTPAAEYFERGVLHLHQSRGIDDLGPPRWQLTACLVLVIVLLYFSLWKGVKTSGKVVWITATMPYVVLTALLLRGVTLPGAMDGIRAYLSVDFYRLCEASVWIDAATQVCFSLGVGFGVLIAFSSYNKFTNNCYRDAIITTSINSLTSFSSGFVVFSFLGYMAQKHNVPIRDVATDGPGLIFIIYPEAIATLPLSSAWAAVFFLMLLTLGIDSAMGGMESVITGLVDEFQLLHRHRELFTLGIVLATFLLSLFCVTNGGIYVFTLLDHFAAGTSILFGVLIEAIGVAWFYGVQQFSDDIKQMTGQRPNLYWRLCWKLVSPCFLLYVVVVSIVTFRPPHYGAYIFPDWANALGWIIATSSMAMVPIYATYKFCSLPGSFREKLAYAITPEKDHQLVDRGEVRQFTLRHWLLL
# Description: The compound Hill coefficient value determined for WIN-Binding
# T1 sequence (P23977 whole entry): as above
Compound,pIC50 [1],pIC50 [2],Hill coefficient [3]
"COC(=O)C(c1ccccc1OC)C1CCCCN1 (single isomer, unassigned)",3.86,3.54,0.87
COC(=O)[C@@H](c1ccc(Br)cc1)[C@@H]1CCCCN1,8.16,7.58,1.15
"COC(=O)C(c1cccc(Cl)c1)C1CCCCN1 (single isomer, unassigned)",6.42,5.81,1.03
COC(=O)[C@@H](c1ccc([N+](=O)[O-])cc1)[C@@H]1CCCCN1,6.31,5.79,1.17
COC(=O)[C@@H](c1ccc(OC)c(OC)c1)[C@@H]1CCCCN1,6.09,5.75,1.12
COC(=O)[C@@H](c1ccc(I)cc1)[C@@H]1CCCCN1,7.85,7.19,1.1
COC(=O)[C@@H](c1ccccc1Cl)[C@@H]1CCCCN1,5.71,5.58,0.98
COC(=O)[C@@H](c1ccc(O)cc1)[C@@H]1CCCCN1,7.01,6.47,1.07
COC(=O)[C@@H](c1ccccc1F)[C@@H]1CCCCN1,5.85,5.54,0.9
COC(=O)[C@@H](c1ccccc1)[C@@H]1CCCCN1,–,–,0.9
COC(=O)[C@@H](c1ccccc1O)[C@@H]1CCCCN1,–,4.45,1.04
COC(=O)[C@@H](c1cccc(N)c1)[C@@H]1CCCCN1,6.58,6.24,1.06
COC(=O)[C@@H](c1ccc(N)cc1)[C@@H]1CCCCN1,7.46,6.94,0.96
COC(=O)[C@@H](c1cccc(Br)c1)[C@@H]1CCCCN1,8.38,7.89,1.14
COC(=O)[C@@H](c1ccccc1OC)[C@@H]1CCCCN1,–,4.09,0.94
COC(=O)[C@@H](c1ccc(Cl)c(Cl)c1)[C@@H]1CCCCN1,8.28,8.15,2.07
"COC(=O)C(c1ccc(C(C)(C)C)cc1)C1CCCCN1 (single isomer, unassigned)",–,–,1.1
COC(=O)[C@@H](c1ccc(Cl)cc1)[C@@H]1CCCCN1,7.69,7.13,1.17
"COC(=O)C(c1ccccc1Br)C1CCCCN1 (single isomer, unassigned)",4.42,4.23,1.06
COC(=O)[C@@H](c1cccc(C)c1)[C@@H]1CCCCN1,7.67,7.00,1.01
COC(=O)[C@@H](c1ccc(C(C)(C)C)cc1)[C@@H]1CCCCN1,–,–,1.12
COC(=O)[C@@H](c1ccc(C)cc1)[C@@H]1CCCCN1,7.48,6.90,1.05
COC(=O)[C@@H](c1ccccc1Br)[C@@H]1CCCCN1,5.73,5.47,0.93
COC(=O)[C@@H](c1cccc(F)c1)[C@@H]1CCCCN1,7.39,6.80,0.85
COC(=O)[C@@H](c1cccc(O)c1)[C@@H]1CCCCN1,6.49,6.10,1.09
"COC(=O)C(c1ccccc1Cl)C1CCCCN1 (single isomer, unassigned)",4.28,4.21,0.92
COC(=O)[C@H]1[C@@H](OC(=O)c2ccccc2)C[C@@H]2CC[C@H]1N2C,–,–,1.03
COC(=O)[C@@H](c1ccc(F)cc1)[C@@H]1CCCCN1,7.46,6.85,0.97
COC(=O)[C@@H](c1cccc(Cl)c1)[C@@H]1CCCCN1,8.29,7.64,0.95
